In patent publication US20070004634A1 (Novo Nordisk A/S, priority 1998, published 2007):
Blank lines part the entries; values can stand above or below the compound they belong to. Residues, ends and D or L forms follow the SMILES beside them. No end group written: not given here.

How the values were obtained:
[1] = target: T1, Insulin receptor (Homo sapiens, UniProt P06213); assay: BIAcore competition, IR binding to immobilized insulin
T1 construct: replacing the transmembrane domain and the intracellular domain of IR with constant domains from immunoglobulin Fc or λ subunits; made in house; host or cells: human embryonic kidney 293 cells (Bass et al.)
T1 sequence (P06213 28-758 limits assumed): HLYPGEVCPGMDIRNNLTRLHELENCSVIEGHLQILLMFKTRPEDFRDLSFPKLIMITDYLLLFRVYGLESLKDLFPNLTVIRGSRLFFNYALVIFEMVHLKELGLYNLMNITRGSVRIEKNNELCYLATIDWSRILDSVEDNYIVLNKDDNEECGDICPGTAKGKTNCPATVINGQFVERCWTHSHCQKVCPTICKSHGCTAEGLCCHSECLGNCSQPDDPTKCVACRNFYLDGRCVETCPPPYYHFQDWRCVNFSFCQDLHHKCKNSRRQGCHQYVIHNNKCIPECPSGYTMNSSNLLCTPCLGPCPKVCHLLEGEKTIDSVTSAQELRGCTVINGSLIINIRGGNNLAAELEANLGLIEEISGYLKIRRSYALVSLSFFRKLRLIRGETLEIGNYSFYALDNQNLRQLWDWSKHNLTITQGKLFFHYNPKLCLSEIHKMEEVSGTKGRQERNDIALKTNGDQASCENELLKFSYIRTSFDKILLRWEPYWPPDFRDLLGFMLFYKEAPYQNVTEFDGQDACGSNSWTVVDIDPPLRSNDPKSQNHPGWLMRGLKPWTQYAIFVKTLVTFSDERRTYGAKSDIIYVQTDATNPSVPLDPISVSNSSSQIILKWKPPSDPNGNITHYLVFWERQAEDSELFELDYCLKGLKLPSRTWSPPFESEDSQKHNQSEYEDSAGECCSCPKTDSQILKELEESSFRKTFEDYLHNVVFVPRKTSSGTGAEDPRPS
T1 sequence (P06213 763-956 limits assumed): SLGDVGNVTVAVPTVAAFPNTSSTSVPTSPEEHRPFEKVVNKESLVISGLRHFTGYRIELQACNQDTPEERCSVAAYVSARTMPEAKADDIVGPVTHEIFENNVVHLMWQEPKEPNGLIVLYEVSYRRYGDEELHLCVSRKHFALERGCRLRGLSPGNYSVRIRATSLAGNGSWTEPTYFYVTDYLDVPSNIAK
Protocol: Flowcell-1 was used for background binding to correct for any non-specific binding. […] The surface was regenerated with 25 mM NaOH.

[2] = system: FDC-P2 cells expressing the IL-3 and human IGF-1R receptors; assay: IGF-1 proliferation assay in FDC-P2 cells, agonist format
[3] = target: T2, IGF-1R (Homo sapiens, UniProt P08069); assay: Phage competition ELISA on IGF-1R; format: binding; design: included the heterotetrameric (alpha 2-beta 2) extracellular domain of IGF-1R; purchased R&D Systems 391-GR/CF; host or cells: mouse myeloma cell line; details: phage RP9, RP6, D8B12, D815
T2 sequence (P08069 31-736 limits assumed): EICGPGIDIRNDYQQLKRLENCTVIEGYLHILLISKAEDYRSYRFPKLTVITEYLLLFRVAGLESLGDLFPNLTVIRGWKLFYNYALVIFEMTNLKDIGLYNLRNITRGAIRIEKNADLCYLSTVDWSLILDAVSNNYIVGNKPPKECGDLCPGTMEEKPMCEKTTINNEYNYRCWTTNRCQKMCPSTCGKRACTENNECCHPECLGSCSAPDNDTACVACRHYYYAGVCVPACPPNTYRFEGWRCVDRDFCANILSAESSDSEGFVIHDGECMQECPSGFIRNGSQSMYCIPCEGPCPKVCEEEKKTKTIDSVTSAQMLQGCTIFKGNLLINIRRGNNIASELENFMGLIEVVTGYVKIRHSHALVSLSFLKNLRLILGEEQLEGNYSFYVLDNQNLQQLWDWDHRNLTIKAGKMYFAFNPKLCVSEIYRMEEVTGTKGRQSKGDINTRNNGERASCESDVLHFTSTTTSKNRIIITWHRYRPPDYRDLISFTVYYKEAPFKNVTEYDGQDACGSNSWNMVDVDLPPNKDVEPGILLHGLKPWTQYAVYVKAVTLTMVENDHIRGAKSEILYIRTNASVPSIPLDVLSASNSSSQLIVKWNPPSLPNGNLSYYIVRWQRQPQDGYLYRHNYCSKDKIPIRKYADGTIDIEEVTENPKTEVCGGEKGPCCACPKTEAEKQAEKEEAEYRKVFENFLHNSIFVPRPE
T2 sequence (P08069 741-935 limits assumed): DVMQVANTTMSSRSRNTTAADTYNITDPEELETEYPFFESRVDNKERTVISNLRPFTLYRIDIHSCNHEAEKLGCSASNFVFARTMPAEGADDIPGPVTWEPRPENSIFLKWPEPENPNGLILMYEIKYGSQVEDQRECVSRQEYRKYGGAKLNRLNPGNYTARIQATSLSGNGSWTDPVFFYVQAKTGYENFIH
Protocol: Wells were blocked with 4% non-fat milk in PBS for 60 min at room temperature. One hundred microliters of rescued phage were added to each well. […] The labeled antibody was incubated at room temperature for 60 min. After washing, 100 μl of ABTS was added per well and the plates read in a microtiter reader at […]. […] (Site 2). Peptides included RP9 and […]. Phage competition studies were also performed with Site 2-Site 1 dimer peptides containing 6- or 12-amino acid linkers. […] Wells were blocked with 4% non-fat milk in PBS for 60 min at room temperature. One hundred microliters of rescued phage were added to each well. Peptides in varying concentrations were added and the mixture incubated for 2 h at room temperature. […] The labeled antibody was incubated for 60 min at room temperature. After washing, 100 μl of ABTS was added per well and the plates read in a microtiter reader at […]. […] Linker sequences are underlined and shown below.

[4] = system: FDC-P2 cells expressing the IL-3 and human IGF-1R receptors; assay: IGF-1 proliferation assay in FDC-P2 cells, antagonist format; details: for antagonist activity at IGF-1R, in words / EC50: FDC-P2 cells; for FDC-P2 Antagonist: FDC-P2 cell proliferation, antagonist effect; for EC50: read-out: ED50, antagonist activity at IGF-1R, 10 ng/ml IGF-1 test medium
[5] = target: T3, soluble human insulin receptor-immunoglobulin heavy chain chimera (sIR-Fc) (Homo sapiens, UniProt P06213); assay: TR-FRET competition with biotinylated S175 (b-S175) for sIR-Fc; format: binding; details: Hill slope, target sIR-Fc, label b-S175
T3 construct: replacing the transmembrane domain and the intracellular domain of IR with constant domains from immunoglobulin Fc or λ subunits; made in house; host or cells: human embryonic kidney 293 cells (Bass et al.)
T3 sequence (P06213 28-758 limits assumed, stated change not applied): as the sequence (P06213 28-758 limits assumed) above
T3 sequence (P06213 763-956 limits assumed, stated change not applied): as the sequence (P06213 763-956 limits assumed) above

[6] = target: T2, IGF-1R; assay: TR-FRET dissociation of biotinylated-20E2 from rhIGF-1R; format: binding; details: peptides 100 μM, IGF-1 30 μM
Protocol: Best fit non-linear regression analysis of the data, was used to determine dissociation rate constants. Each data point represents a single observation. […] Reactions were allowed to reach equilibrium for 6 h at RT.

[7] = target: T3, soluble human insulin receptor-immunoglobulin heavy chain chimera (sIR-Fc); assay: Fluorescence polarization, competition with FITC-RP9 for sIR-Fc; format: binding; details: for potency / affinity at IR, in words: FP with FITC-RP9, summary of Table 22; for Hill, sIR-Fc, FITC-RP9, FP: Hill slope, target sIR-Fc, label FITC-RP9, fluorescence polarization
[8] = target: T4, insulin receptor construct transfected into 32D cells (Homo sapiens, UniProt P06213); assay: IR autophosphorylation assay in IR transfected 32D cells (ELISA); format: cell-based; details: tested as MBP fusion peptides
T4 construct: expressed in transfected cells; host or cells: 32D cells (clone 969)
T4 sequence (P06213 28-758 limits assumed): as the sequence (P06213 28-758 limits assumed) above
T4 sequence (P06213 763-1382 limits assumed): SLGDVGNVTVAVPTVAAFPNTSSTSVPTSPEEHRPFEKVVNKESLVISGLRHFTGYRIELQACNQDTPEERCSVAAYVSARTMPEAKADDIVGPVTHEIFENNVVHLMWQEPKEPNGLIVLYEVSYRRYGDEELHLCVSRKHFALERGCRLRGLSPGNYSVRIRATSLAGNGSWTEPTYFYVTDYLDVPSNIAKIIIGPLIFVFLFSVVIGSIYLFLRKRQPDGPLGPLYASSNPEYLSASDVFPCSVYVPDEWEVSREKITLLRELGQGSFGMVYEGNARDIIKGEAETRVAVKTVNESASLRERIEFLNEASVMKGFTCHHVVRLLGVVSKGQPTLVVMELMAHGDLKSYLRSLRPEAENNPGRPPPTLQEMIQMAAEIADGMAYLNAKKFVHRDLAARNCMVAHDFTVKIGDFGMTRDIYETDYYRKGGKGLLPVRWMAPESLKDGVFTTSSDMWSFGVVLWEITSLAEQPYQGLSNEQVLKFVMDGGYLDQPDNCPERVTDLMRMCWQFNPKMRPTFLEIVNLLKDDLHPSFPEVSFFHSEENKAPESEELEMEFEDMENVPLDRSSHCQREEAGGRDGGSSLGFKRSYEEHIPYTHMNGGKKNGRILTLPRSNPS
Protocol: The IR transfected 32D cells were seeded at […] in 96-well tissue culture plates and incubated overnight at 37° C. […] The culture media was decanted from the cell culture plates, and the diluted samples were added to the cells. The plates were incubated at 37° C. for 30 min. The stimulation medium was decanted from the plates, and cell lysis buffer (50 mM HEPES pH 7.2, 150 mM NaCl, 0.5% Triton X-100, 1 mM AEBSF, 10 KIU/ml aprotinin, 50 μM leupeptin, and 2 mM sodium orthovanadate) was added. The cells were lysed for 30 min.
In the ELISA portion of the assay, the cell lysates were added to the BSA-blocked anti-IR unit mAb (Upstate Biotechnology, Lake Placid, N.Y.) coated ELISA plates. After a 2 h incubation, the plates were washed 6 times with PBST and biotinylated anti-phosphotyrosine antibody (Upstate Biotechnology) is added. After another 2 h incubation, the plates were again washed 6 times. Streptavidin-Eu was then added, and the plates were incubated for 1 h. After washing the plates again, EG&G Wallac enhancement solution (100 mM acetone-potassium hydrogen pthalate, pH 3.2; 15 mM 2-naphtyltrifluoroacetate; 50 mM tri(n-octyl)-phosphine oxide; 0.1% Triton X-100) was added into each well, and the plates were placed onto a shaker for 20 min at RT.

[9] = target: T3, soluble human insulin receptor-immunoglobulin heavy chain chimera (sIR-Fc); assay: TR-FRET competition with biotinylated RP9 (b-RP9) for sIR-Fc; format: binding; details: Hill slope; target sIR-Fc; label b-RP9; TR-FRET
[10] = target: T5, soluble HIR ectodomain (sIR) (Homo sapiens, UniProt P06213); assay: Fluorescence polarization, competition with FITC-RP9 for sIR; format: binding; details: Hill slope, target sIR, label FITC-RP9
T5 construct: soluble HIR ectodomain (sIR); Kristensen et al., 1998
T5 sequence (P06213 28-758 limits assumed): as the sequence (P06213 28-758 limits assumed) above
T5 sequence (P06213 763-956 limits assumed): as the sequence (P06213 763-956 limits assumed) above

[11] = target: T2, IGF-1R; assay: TR-FRET competition with biotinylated-20E2 for rhIGF-1R; details: TR-FRET (rhIGF-1R, b-20E2) versus FP (sIR-Fc), summary of Table 22
[12] = system: free fat cells (adipocytes); assay: Adipocyte / free fat cell (FFC) assay, 3H glucose incorporation into lipid
[13] = system: MCF-7 cells; assay: MCF-7 cell proliferation assay, IGF-1R agonist format; format: cell-based, human; details: MCF-7 cell proliferation, agonist effect
Description: ; FIGS. 65A-65F), and were used for subsequent experiments.

[14] = system: MiaPaCa cells; details: for MiaPaCa Antagonist: MiaPaCa cell proliferation, antagonist effect
[15] = system: MiaPaCa cells; assay: MiaPaCa cell proliferation assay, IGF-1R agonist format; format: cell-based, human; details: MiaPaCa cell proliferation, agonist effect
[16] = system: MCF-7 cells; details: for MCF-7 Antagonist: MCF-7 cell proliferation, antagonist effect
[17] = target: His-tagged soluble recombinant human IGF-IR (srhIGF-1R-his) (Homo sapiens, UniProt P08069); assay: ALPHAScreen competition, b-hIGF-1 binding to srhIGF-1R-his; details: read-out: Affin.; AlphaScreen assay versus IGF-1
Chain of His-tagged soluble recombinant human IGF-IR (srhIGF-1R-his) (P08069 31-736 limits assumed): as the sequence (P08069 31-736 limits assumed) above
Chain of His-tagged soluble recombinant human IGF-IR (srhIGF-1R-his) (P08069 741-935 limits assumed): as the sequence (P08069 741-935 limits assumed) above

[18] = system: IR; assay: IR activity (agonist/antagonist) of MBP-peptide fusions, Table 10; test not named; details: MBP-peptide fusion proteins; one symbol per monomer unit

% Binding ([1]; Table 13, peptide about 40 μM, IR 450 nM, IR alone 100): 33%
Compound: KWLDQEWAWVQCEVYGRGCPSKK [Peptide D8]

competition of Site 1 and Site 2 phage on IGF-1R [3]: competed both Site 1 and Site 2 phage
Compound: CC[C@H](C)[C@@H]1NC(=O)[C@H](CCC(=O)O)NC(=O)[C@@H](NC(=O)[C@H](Cc2c[nH]c3ccccc23)NC(=O)[C@H](CC(C)C)NC(=O)[C@H](Cc2c[nH]c3ccccc23)NC(=O)[C@H](C)NC(=O)[C@H](CCCNC(=N)N)NC(=O)[C@H](CCC(=O)O)NC(=O)[C@H](CCC(N)=O)NC(=O)[C@H](CC(=O)O)NC(=O)[C@H](CC(C)C)NC(=O)[C@@H](N)Cc2c[nH]c3ccccc23)CSSC[C@@H](C(=O)N[C@@H](CC(C)C)C(=O)N[C@@H](CO)C(=O)O)NC(=O)CNC(=O)[C@H](CCCNC(=N)N)NC(=O)CNC(=O)[C@H](CO)NC1=O [Peptide D815]
FDC-P2 Agonist ([2]; FDC-P2 cell proliferation, agonist effect): + | agonist activity at IGF-1R, in words ([2]; FDC-P2 cells): IGF-1R agonist activity | EC50 ([2]; read-out: ED50, agonist activity at IGF-1R, FDC-P2 cells): ~2000 nM | antagonist activity at IGF-1R, in words [4]: no antagonist activity

competition of Site 1 and Site 2 phage on IGF-1R [3]: competed both Site 1 and Site 2 phage | Hill, sIR-Fc, b-S175, FRET [5]: −0.45 | potency / affinity at IR, in words [7]: slightly less potent | Hill, sIR-Fc, FITC-RP9, FP [7]: −0.41 | Hill, sIR-Fc, b-RP9, FRET [9]: −0.69 | Hill, sIR, FITC-RP9, FP [10]: −0.29 | binding to IGF-1R compared with IR, in words [11]: lower binding ratios for IGF-1R over IR
Compound: GSLDESFYDWFERQLGKK [Peptide S371]
agonist activity at IGF-1R, in words ([2]; FDC-P2 cells): no agonist activity | Class ([2]; IGF-1R agonist or antagonist): N | MCF-7 Agonist [13]: No | FDC-P2 Antagonist [4]: + | EC50 [4]: ~7000 nM | MiaPaCa Antagonist [14]: No | MiaPaCa Agonist [15]: No | MCF-7 Antagonist [16]: No | FFC ([12]; FFC assay potency grade, 0, + to ++++++, −): + | FFC ([12]; Table 5, free fat cell assay): + | FFC ([12]; Table 6, free fat cell assay): +

Second part, the compound before the results:

Compound: maltose binding protein [MBP, reference compound]
Result (RUs) ([1]; Table 12, IR 450 nM pre-incubated with insulin […], A7 (20A4)-MBP 4.1 μM, D8-MBP […], D10-MBP 3.4 μM, 447-MBP 11.5 μM or MBP 13 μM, IR alone 220 RU): 209 RUs

Compound: FHENFYDWFVRQVSKK [Peptide H2C]
Hill, sIR-Fc, b-S175, FRET [5]: −0.82 | effect on the rate of dissociation of b-20E2 from IGF-1R [6]: dissociation rates of b-20E2 were similar | potency / affinity at IR, in words [7]: slightly less potent | Hill, sIR-Fc, FITC-RP9, FP [7]: −0.27 | stimulation of autophosphorylation of IR [8]: stimulate autophosphorylation | Hill, sIR-Fc, b-RP9, FRET [9]: −1.03 | Hill, sIR, FITC-RP9, FP [10]: −0.49 | binding to IGF-1R compared with IR, in words [11]: lower binding ratios for IGF-1R over IR | FFC ([12]; free fat cell assay class, Table 9): +

Compound: CC(C)C[C@H](NC(=O)[C@H](CS)NC(=O)[C@H](CO)NC(=O)[C@H](Cc1ccc(O)cc1)NC(=O)[C@H](Cc1ccccc1)NC(=O)[C@@H](N)[C@@H](C)O)C(=O)N[C@@H](C)C(=O)N[C@@H](CO)C(=O)N[C@@H](CC(C)C)C(=O)N[C@@H](CC(C)C)C(=O)N[C@H](C(=O)NCC(=O)N[C@H](C(=O)N1CCC[C@H]1C(=O)N[C@@H](CCC(N)=O)C(=O)N1CCC[C@H]1C(=O)N[C@@H](CC(N)=O)C(=O)N[C@@H](CCCNC(=N)N)C(=O)NCC(=O)N1CCC[C@H]1C(=O)N[C@@H](Cc1c[nH]c2ccccc12)C(=O)N[C@@H](CCC(=O)O)C(=O)N[C@@H](CCCNC(=N)N)C(=O)N[C@@H](CS)C(=O)N[C@@H](CCCNC(=N)N)C(=O)O)[C@@H](C)O)[C@@H](C)O [RP6] (H-TFYSCLASLLTGTPQPNRGPWERCR-OH; N-terminus and C-terminus assumed)
agonist activity at IGF-1R, in words ([2]; FDC-P2 cells): no agonist activity | effect on the rate of dissociation of b-20E2 from IGF-1R [6]: dissociation rates of b-20E2 were similar | FDC-P2 Antagonist [4]: + | antagonist activity at IGF-1R, in words [4]: acted as an antagonist | EC50 [4]: ~1000 nM | MiaPaCa Antagonist [14]: No | MiaPaCa Agonist [15]: No | MCF-7 Antagonist [16]: +

Compound: CC(C)C[C@@H]1NC(=O)[C@@H](NC(=O)[C@H](CO)NC(=O)[C@H](Cc2ccc(O)cc2)NC(=O)[C@H](Cc2ccccc2)NC(=O)[C@@H](N)CO)CSSC[C@@H](C(=O)N[C@@H](CCCNC(=N)N)C(=O)N[C@@H](CCCCN)C(=O)N[C@@H](CCCCN)C(=O)O)NC(=O)CNC(=O)[C@H](CC(=O)O)NC(=O)[C@H](Cc2c[nH]c3ccccc23)NC(=O)[C@H](CCC(N)=O)NC(=O)CNC(=O)[C@H](CCCNC(=N)N)NC(=O)[C@H](CO)NC(=O)[C@H](CCCCN)NC(=O)[C@H](CCC(=O)O)NC(=O)[C@H](C)NC(=O)[C@@H]2CCCN2C(=O)CNC(=O)[C@H](CC(N)=O)NC(=O)[C@H](C(C)C)NC(=O)[C@H](CC(C)C)NC(=O)[C@H](CO)NC(=O)[C@H](CCC(=O)O)NC1=O [RP33-IGF with KK]
IC50 [17]: 9 nM | IC50 ([14]; MiaPaCa): 700 nM | IC50 ([16]; MCF-7): 100 nM | Activ. ([16]; proliferation assays in the presence of IGF-1 using MCF-7 and MiaPaCa cells): Antag.

Compound: 437 (NNNNLGIEGRISEFIEGRAQPAMAFHENFYDWFVRQVSAAAGAPVPYPDPLEPRAA; also: MBP fusion, junction not given here) [Peptide 437]
Act. (activity) [18]: N—N
